This note sets out measurements from patent US5439905A, “Thienodiazepine compounds and their use” (Yoshitomi Pharmaceutical Industries, Ltd., priority 1993, dated 1995).

For orientation: IC50 means the point on the concentration scale where inhibition reaches its midpoint.

Read-outs that look alike come from different tables or passages of the source.

One assay concerns the target T1, CCK receptor (pancreas) (Canis lupus familiaris, UniProt Q5D0K2).
T1 construct: the suspension was used as a receptor source; from tissue; host or cells: dog pancreas membranes
T1 sequence (Q5D0K2 1-428): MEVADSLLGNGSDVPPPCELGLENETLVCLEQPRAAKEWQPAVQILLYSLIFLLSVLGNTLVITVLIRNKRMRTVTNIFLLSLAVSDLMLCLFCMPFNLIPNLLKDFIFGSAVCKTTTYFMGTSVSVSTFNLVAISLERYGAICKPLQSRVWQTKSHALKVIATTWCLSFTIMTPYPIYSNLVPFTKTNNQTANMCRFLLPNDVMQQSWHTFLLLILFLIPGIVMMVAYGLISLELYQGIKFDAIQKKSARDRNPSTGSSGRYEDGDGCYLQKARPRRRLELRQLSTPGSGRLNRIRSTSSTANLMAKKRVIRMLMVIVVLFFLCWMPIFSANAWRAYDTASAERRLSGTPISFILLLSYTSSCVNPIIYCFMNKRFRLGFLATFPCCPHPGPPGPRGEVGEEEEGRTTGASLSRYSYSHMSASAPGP
Nature of the assay: CCK receptor-binding, pancreas (inhibition of 125I-CCK-8 binding). Also on record: species or system male mongrel adult dog. How it is done: The entire pancreas of a male mongrel adult dog was extracted and the fat tissues thereof were removed. The residual portion was homogenized in 50 mM Tris hydrochloride (pH 7.5) (Blinkman.cndot.Polytron PT20). After the filtration with nylon cloth (120 mesh) and subsequent centrifugation (50,000×g, 12 minutes), the obtained sediment was homogenized in a Tris buffer solution in the same manner as mentioned above and the homogenate was centrifuged. The obtained sediment was suspended in a buffer solution for binding assay (5 mM magnesium chloride, 5 mM dithiothreitol, 2 mg/ml bovine serum albumin, 0.1 mg/ml bacitracin, and 50 mM Tris hydrochloride, pH 7.2) containing 0.14 mg/ml trypsin-inhibitor (soy bean), and the suspension was used as a receptor source.

Another assay concerns the target T2, CCK receptor (brain).
T2 construct: brain; from tissue
Put plainly: CCK receptor-binding, brain (inhibition of 125I-CCK-8 binding).

[1] abbreviates: dog pancreas membranes, 125I-CCK-8, 20° C., 30 minutes, pH 7.2, read-out: CCK binding, IC50, pancreas.

T2 sequence (P32239 whole entry): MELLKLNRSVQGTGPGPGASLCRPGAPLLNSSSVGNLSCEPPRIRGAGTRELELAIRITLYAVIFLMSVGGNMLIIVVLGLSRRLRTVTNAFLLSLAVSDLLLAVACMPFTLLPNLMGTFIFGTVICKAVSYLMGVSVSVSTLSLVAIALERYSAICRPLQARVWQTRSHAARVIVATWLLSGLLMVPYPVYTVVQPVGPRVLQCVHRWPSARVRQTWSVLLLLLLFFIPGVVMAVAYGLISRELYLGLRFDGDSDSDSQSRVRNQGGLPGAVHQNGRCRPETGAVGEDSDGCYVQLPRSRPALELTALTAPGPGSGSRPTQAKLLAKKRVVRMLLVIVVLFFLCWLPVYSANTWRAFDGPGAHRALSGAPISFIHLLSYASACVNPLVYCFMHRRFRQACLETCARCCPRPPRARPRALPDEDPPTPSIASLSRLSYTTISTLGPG

For the molecule `CCc1cc2c(s1)N(C)C(=O)C(NC(=O)Nc1cccc(C)c1)N=C2c1ccccc1Cl` (stereo not drawn) [Compound A, 4-(2-chlorophenyl)-2-ethyl-8-methyl-6-(3-(3-methylphenyl)ureido)-8H-6,7-dihydro-thieno[3,2-f]-[1,4]diazepin-7-one], the IC50 on CCK receptor (pancreas) is 11 nM; on CCK receptor (brain), 31 nM. In the case of CCK-4 [reference compound], on CCK receptor (pancreas) (setting [1]), the IC50 is 800 nM. Consider “CCK-8: CCK-8 which consists of 8 amino acids at the C terminus (of cholecystokinin); control compound [reference compound]”, for which, in the assay with CCK receptor (pancreas) (setting [1]), the IC50 was determined as 0.4 nM.

For `CCc1cc2c(s1)-n1c(C)nnc1C(NC(=O)Nc1cccc(C)c1)N=C2c1ccccc1Cl` (stereo not drawn) [Compound B, 4-(2-chlorophenyl)-2-ethyl-9-methyl-6-(3-(3-methylphenyl)ureido)-6H-thieno[3,2-f][1,2,4]-triazolo[4,3-a][1,4]diazepine], the results for the IC50 at CCK receptor (pancreas) and at CCK receptor (brain) were 1.2 nM and 10 nM, respectively.
